Where two headings read alike, the source gives them in different places. Where a SMILES comes first, the peptide text is derived from it. Bridges are numbered along the chain shown (N, C = ends).
What was measured:
[1] = tested on: uPA activation by matriptase-1 on the surface of PC-3 cells; assay: Cell inhibition assay: uPA activation by matriptase-1 on the surface of PC-3 cells; format: cell-based, human
Description: Human prostate cancer cells (PC-3, Merck KGaA) were cultured in DMEM medium with 10% FCS at 37°C and 5% CO2, washed with cation-free PBS and harvested by scraping. 1×10^5 cells were incubated in presence of 250 µM Bz-β-Ala-Gly-Arg-pNA·AcOH (American Diagnostica), which is a specific […] of urokinase, and the inhibitor of interest in defined dilutions overnight. Product formation was monitored at 405 nm before and after incubation in a microplate reader. IC50 was calculated by non-linear regression using SigmaPlot 11.
Urokinase-type plasminogen activator (uPA) causes the degradation of the extracellular matrix and plays a critical role in tumor invasion and metastasis, [73]. It was shown that activation of receptor-bound pro-uPA is affected by matriptase-1, which results in a decreased ability of uPAexpressing tumor cells to invade an extracellular matrix layer upon inhibition of membrane-bound matriptase-1 [72].
For the indirect determination of the IC50 of SOTI Var. 1 and MCoTI Var. 4 on the surface of these cancer cells, the turnover of an uPA substrate was monitored. Pro-uPA is activated through non-inhibited matriptase-1 and substrate turnover was measured and compared to the previously reported small molecule inhibitor S1 of matriptase-1 (Figure 4). In this experimental setting, the MCoTI-based inhibitor Var. […] 4 in this assay.
Figure 4 Inhibition assay of uPA activation by matriptase-1 on the surface of PC-3 cells. Depicted is the logarithmic inhibitor concentration against the absorption at 405 TEXT PRINTED IN THE PICTURE: MCoTI Var.

[2] = biological target: T1, Human matriptase-1 (Homo sapiens, UniProt Q9Y5Y6); assay: Matriptase-1 inhibition assay (Ki / Ki app); format: biochemical; details: substrate-independent Ki from Ki app (Morrison equation) and Km; 250 µM substrate; preincubation 30 min RT; read over 30 min; triplicate; read-out: Ki (Matriptase-1)
T1 construct: made in house
T1 sequence (Q9Y5Y6 615-855 limits assumed): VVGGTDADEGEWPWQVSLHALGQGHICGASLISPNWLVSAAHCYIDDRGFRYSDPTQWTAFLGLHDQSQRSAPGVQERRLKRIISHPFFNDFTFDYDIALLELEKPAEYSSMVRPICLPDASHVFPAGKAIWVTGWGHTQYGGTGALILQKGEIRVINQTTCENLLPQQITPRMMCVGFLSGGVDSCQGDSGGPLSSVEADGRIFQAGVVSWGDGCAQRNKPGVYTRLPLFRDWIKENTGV
Description: (§5) Human matriptase-1 was produced recombinantly, autocatalytically activated and purified as previously reported [35], [49], [51], [60].
(§6) Apparent inhibition constants (Ki ^app) were calculated by fitting the Morrison equation (1) for tight-binding inhibitors to the relative reaction velocity using non-linear regression (Marquardt-Levenberg algorithm, Sigma Plot 11) [63].

[3] = tested on: Human matriptase-1; assay: Matriptase-1 inhibition assay (Ki / Ki app); format: biochemical; details: ratio of Ki values of Table 1
Description: as §5, §6

[4] = biological target: T2, Bovine pancreatic trypsin (Bos taurus, UniProt P00760); assay: Trypsin inhibition assay (substrate-independent Ki); format: biochemical; details: substrate-independent Ki from Ki app (Morrison equation) and Km; 250 µM substrate; preincubation 30 min RT; read over 30 min; triplicate
T2 construct: purchased Sigma-Aldrich
T2 sequence (P00760 24-246): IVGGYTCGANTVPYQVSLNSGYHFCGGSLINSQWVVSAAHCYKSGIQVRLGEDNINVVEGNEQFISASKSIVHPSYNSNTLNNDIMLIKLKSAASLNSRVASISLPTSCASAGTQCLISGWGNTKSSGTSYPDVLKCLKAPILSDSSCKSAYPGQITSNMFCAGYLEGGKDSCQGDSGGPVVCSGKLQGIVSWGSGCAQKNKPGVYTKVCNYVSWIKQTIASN
Description: as §6

[5] = biological target: thrombin; assay: Selectivity assay, thrombin inhibition; format: biochemical; details: duplicates; 5 nM protease; no inhibition observed at 10 µM inhibitor concentration
Description: as §6

[6] = biological target: uPA (Homo sapiens, UniProt P00749); assay: biochemical
Description: (§1) Human matriptase-1 was produced recombinantly, autocatalytically activated and purified as previously reported, [49], [51], [60]. Bovine pancreatic trypsin, thrombin and uPA were purchased from Sigma-Aldrich and Hepsin from R&D Systems.
(§2) Measurements were carried out in triplicate using a Tecan Genios ELISA reader. The normalized residual proteolytic activity (v/v0) of proteases was determined using substrates Boc-QAR-pNA (250 µM, (pNA stands for para-nitro aniline), Boc-QAR-AMC (250 µM, AMC stands for amino-methyl coumarin) or Spectrozym tPA (250 µM, American Diagnostica, CH3SO2-D-CHT-Gly-Arg-pNA AcOH). Product formation was monitored after preincubation (30 min, RT) with inhibitor at different concentrations over 30 min by measuring the absorbance at 405 nm for pNA substrates or the fluorescence emission for AMC substrates (ex. 360 nm, em. 465 nm), respectively. Selectivity data were carried out in duplicates with final protease concentrations of uPA and thrombin of 5 nM. In case of hepsin 50 mM Tris/HCl pH 9.0 was used as assay buffer.
(§3) Apparent inhibition constants (Ki ^app) were calculated by fitting the Morrison equation (1) for tight-binding inhibitors to the relative reaction velocity using non-linear regression (Marquardt-Levenberg algorithm, Sigma Plot 11). [drawing 1] (1) [drawing 2] (2)
(§4) Substrate-independent inhibition constants Ki were calculated from Ki ^app and Km of the enzyme according to (2). The Michaelis-Menten constant Km for the substrates and proteases were determined previously, [64].

[7] = biological target: Hepsin (Homo sapiens, UniProt P05981); assay: biochemical
Description: as §1, §2, §3, §4

Sequence of Hepsin (P05981 whole entry): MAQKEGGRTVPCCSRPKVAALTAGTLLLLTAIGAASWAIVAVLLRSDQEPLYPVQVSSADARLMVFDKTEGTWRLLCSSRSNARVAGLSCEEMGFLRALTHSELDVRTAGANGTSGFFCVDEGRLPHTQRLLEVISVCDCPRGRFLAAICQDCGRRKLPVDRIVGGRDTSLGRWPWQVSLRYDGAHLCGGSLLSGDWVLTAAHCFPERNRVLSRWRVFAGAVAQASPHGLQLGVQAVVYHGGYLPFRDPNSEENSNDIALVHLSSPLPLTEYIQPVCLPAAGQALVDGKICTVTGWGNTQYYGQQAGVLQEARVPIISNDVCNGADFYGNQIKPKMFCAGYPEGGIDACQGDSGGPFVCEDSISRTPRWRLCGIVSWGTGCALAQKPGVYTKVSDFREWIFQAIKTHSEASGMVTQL

Q: For CC[C@H](C)[C@@H]1NC(=O)[C@@H]2CSSC[C@H](NC(=O)[C@@H](NC(=O)CNC(=O)[C@@H](N)Cc3c[nH]c4ccccc34)C(C)C)C(=O)N3CCC[C@H]3C(=O)N[C@@H](CCCCN)C(=O)N[C@@H](C(C)C)C(=O)N[C@@H](CC(C)C)C(=O)N[C@@H](CCCNC(=N)N)C(=O)N[C@@H](CC(N)=O)C(=O)N[C@H]3CSSC[C@H](NC1=O)C(=O)N[C@@H](CC(C)C)C(=O)NCC(=O)N[C@@H](CC(N)=O)C(=O)NCC(=O)N[C@@H](Cc1ccc(O)cc1)C(=O)N[C@H](C(=O)NCC(N)=O)CSSC[C@H](NC(=O)[C@H](CC(=O)O)NC(=O)[C@H](CO)NC(=O)[C@H](CC(=O)O)NC(=O)[C@H](CCCNC(=N)N)NC(=O)[C@H](CCCNC(=N)N)NC3=O)C(=O)N1CCC[C@H]1C(=O)NCC(=O)N[C@@H](C)C(=O)N2 [MCoTI Var. 4] (H-WGVCPKVLRNCRRDSDCPGACICLGNGYCG-NH2; disulfide 4-21, 11-23, 17-29), which IC50 ([1]; 1×10^5 PC-3 cells, 250 µM Bz-β-Ala-Gly-Arg-pNA, overnight, absorbance 405 nm, read-out: IC50 (uPA substrate turnover on PC-3 cells)) is on record?
A: The IC50 was 213 nM.

Q: And the “potency relative to recently described peptidomimetic small-molecule inhibitors” value ([1]; PC-3 cells, IC50 comparison (Figure 4))?
A: The value was 10 fold.

Q: What about the Ki [2] of the same molecule?
A: The Ki was 0.83 ± 0.14 nM.

Q: And the “inhibitory activity for matriptase-1 relative to trypsin” value [3]?
A: The value was “approximately fortyfold higher”.

Q: And the Ki [4]?
A: The Ki was 35.8 ± 4.7 nM.

Q: What about the Ki [5] of the same molecule?
A: Its Ki is > 10000 nM.

Q: What about the Ki [6] of the same molecule?
A: Its Ki is > 10000 nM.

Q: And the Ki [7]?
A: The Ki was > 10000 nM.

Q: What about the Ki ([7]; read-out: Ki (Hepsin), duplicates, 50 mM Tris/HCl pH 9.0, no inhibition observed at 10 µM inhibitor concentration) of the same molecule?
A: The Ki was > 10000 nM.
